What was measured:
[1] = test system: serum lactate level; test: Influence on serum lactate level, repeated administration for 4 days; format: in vivo, normal rat
Experimental: The biguanide drugs heretofore used as a treatment for diabetes are said undesirably to cause acidosis due to an increase of serum lactate level when such drugs are repeatedly administered. The compounds of the present invention were repeatedly administered for 4 days to normal rats and the serum lactate level was determined every day to compare such with the administration of phenformine which is one example of a biguanide drug.
Compound A was repeatedly administered for 4 days to normal rats in a dosage of 200 mg/kg/day, and blood was sampled with the passage of time in order to determine the serum lactate level.

[2] = test system: blood sugar level; test: Glucose tolerance test in normal rats (oral compound, glucose load 1 hour later); format: in vivo, normal rat; details: for Glucose Tolerance Improving Activity / Blood Glucose Level, 0 min / Blood Glucose Level, 15 min / Blood Glucose Level, 30 min / Blood Glucose Level, 60 min / Blood Glucose Level, 90 min / Blood Glucose Level, before glucose load (-60 min.): glucose 2 g/kg; for Glucose Tolerance Improving Activity: sum of increments at 15, 30, 60, 90 min vs control, 100 = no improvement
Experimental: (§1) One index for the treatment of diabetes is to improve this glucose tolerance. The compound of the present invention was orally administered to normal rats, Streptozotocin-induced mildly diabetic rats and AYKK-mice, and thereafter glucose was administered intraperitoneally 1 hour later, and the glucose tolerance was examined. […] Further, a lowering of blood sugar in the glucose tolerance test using normal rats was examined with the passage of time, and the results obtained are given in Table 1 below.
(§2) A sample aqueous solution or suspension was orally administered to the test animals which had been fasted for 24 hours and one hour later glucose was intraperitoneally or subcutaneously administered to the test animals. Thereafter, blood was sampled from the tail vein with the passage of time in order to determine the blood sugar level by the glucose-oxidase method.

[3] = test system: blood sugar level; test: Blood sugar lowering activity, fasted rat; format: in vivo
Experimental: (§3) The compounds of the present invention were orally administered to normal rats, mice, dogs and hereditary diabetic mice(AYKK-mice), and the blood sugar lowering activity was examined.
(§4) Test animals which were used included animals which had been fasted for 24 hours to achieve an empty stomach, and animals which had been fed to achieve a full stomach without any restriction of diet. A sample aqueous solution or suspension was orally administered, and blood was sampled with the passage of time from the tail vein or the cephalic vein in order to determine the level of blood sugar by the glucose-oxidase method.

[4] = test system: blood sugar level; test: Blood sugar lowering activity, fed mouse; format: in vivo
Experimental: as §3, §4

[5] = test system: blood sugar level; test: Blood sugar lowering activity, fasted beagle; format: in vivo, beagle dog; details: 25 mg/kg PO
Experimental: as §3, §4

[6] = test system: blood sugar level; test: Blood sugar lowering activity, fed AγKK (AYKK) mouse, hereditary diabetic; format: in vivo; details: for Blood Sugar Level (control = 100), 1 Hr / Blood Sugar Level (control = 100), 2 Hrs / Blood Sugar Level (control = 100), 3 Hrs / Blood Sugar Level (control = 100), 5 Hrs: fed AγKK mouse
Experimental: as §3, §4

[7] = test system: blood sugar level; test: Glucose tolerance test in AYKK mice; format: in vivo, AYKK mouse; details: glucose 1 g/kg, sum of increments at 15, 30, 60, 90 min vs control, 100 = no improvement
Experimental: as §1, §2
*5AYKK-mouse was obtained by mating a yellow mouse having symptoms of […]

[8] = test system: blood platelet aggregation induced by collagen in rat platelet rich plasma; test: Blood platelet aggregation inhibiting activity (collagen induced, in vitro); format: cell-based; details: read-out: Platelet Aggregation Inhibition Activity, ID50
Experimental: It is generally said that blood platelet aggregability is accelerated in a diabetes patient and that this secondarily causes blood vessel disorders. […] Thus, based on this the compounds of the present invention are expected to be useful in preventing and improving the secondary vasular lesions of diabetes mellitus.
Citrated rat blood was centrifuged in order to obtain platelet rich plasma, and to 0.4 ml of this plasma was added 50 μl of sample solution. To the resulting solution was added 50 μl of collagen suspension under stirring, and platelet aggregation reaction was determined according to the method of Born [Nature, Vol. 194, pp. 927 (1962)]. The concentration of the sample (ID50) which inhibits 50% of the aggregation reaction of the control without the test sample added is shown in Table 6 below.

[9] = Acute toxicity (rat); details: in vivo, read-out: Acute Toxicity (rat) ID50
[10] = test system: blood sugar level; test: Glucose tolerance test in streptozotocin-induced mildly diabetic rats; format: in vivo, rat (Wistar strain); details: 20 mg/kg PO; glucose 1 g/kg; sum of increments at 15, 30, 60, 90 min vs control; 100 = no improvement
Experimental: as §1, §2
*4The streptozotocin-induced mildly diabetic rats were produced by […]

[11] = test system: blood insulin; test: Insulin releasing action, fed rats; format: in vivo, rat; details: 50 mg/kg iv
Experimental: (§5) Among the test animals fed rats were anesthetized by administration of pentobarbital (40 mg/kg, ip), and administered, intravenously with an isotonic sodium chloride solution of Compound A. An aqueous solution of the sample was orally administered to fed mice. In both cases blood was sampled from the tail vein with the passage of time, and the blood insulin was determined by the radioimmunoassay method of Morgen et al [Diabetes, Vol. 12, pp 115 (1963)]. At the same time blood sugar was also determined. […] The amount of insulin released in Table 4 was obtained by determining the difference between the blood insulin level at 5 points (5, 10, 20, 30, 40 minutes) during a 40 minute period after administration of the sample in the case of rats or 3 points (0.5, 1.0, 2.0 hours) during a 2 hour period after administration of the sample in the case of mice and the blood insulin level at 0 minute just before administration of the sample and then by summing up these differences.

[12] = test system: blood insulin; test: Insulin releasing action, fed mice; format: in vivo, mouse
Experimental: as §5

[H]/N=C(/N)N/C(=N/[H])NCCc1ccccc1 [Phenformin]
Serum Lactate Level, 0 Day ([1]; 0 Day, Compound A 200 mg/kg/day (phenformin dose not given)): 1.061±0.099 μ mol/ml | Serum Lactate Level, After 1 Day ([1]; After 1 Day, Compound A 200 mg/kg/day (phenformin dose not given)): 2.086±0.066 μ mol/ml | Serum Lactate Level, After 4 Days ([1]; After 4 Days, Compound A 200 mg/kg/day (phenformin dose not given)): 3.009±0.641 μ mol/ml | increase in serum lactate level ([1]; repeated administration for 4 days, normal rats, in words): remarkable increase in serum lactate level

c1ccc(C(CC2=NCCN2)c2ccccn2)cc1 (stereo not shown) [Compound B, 2-[2-phenyl-2-(2-pyridyl)]ethylimidazoline]
Glucose Tolerance Improving Activity ([2]; 10 mg/kg PO): 22.0% | Blood Glucose Level, 0 min ([2]; 10 mg/kg): 74 ± 3 mg/dL | Blood Glucose Level, 15 min ([2]; 10 mg/kg): 91 ± 9 mg/dL | Blood Glucose Level, 30 min ([2]; 10 mg/kg): 91 ± 5 mg/dL | Blood Glucose Level, 60 min ([2]; 10 mg/kg): 79 ± 4 mg/dL | Blood Glucose Level, 90 min ([2]; 10 mg/kg): 68 ± 5 mg/dL | Blood Glucose Level, before glucose load (-60 min.) ([2]; 10 mg/kg): 90 ± 2 mg/dL | blood sugar level maintained after glucose load ([2]; normal rats, Table 1, in words): maintains the blood sugar level in the range of the fasting blood sugar level | rise in blood sugar level due to the glucose load ([2]; normal rats, Table 1, in words): scarcely any rise in blood sugar level | Blood Sugar Level (control = 100), 1 Hr ([3]; 10 mg/kg PO): 71% | Blood Sugar Level (control = 100), 2 Hrs ([3]; 10 mg/kg PO): 67% | Blood Sugar Level (control = 100), 3 Hrs ([3]; 10 mg/kg PO): 58% | Blood Sugar Level (control = 100), 5 Hrs ([3]; 10 mg/kg PO): 73% | Blood Sugar Level (control = 100), 1 Hr ([3]; 25 mg/kg PO): 83% | Blood Sugar Level (control = 100), 2 Hrs ([3]; 25 mg/kg PO): 68% | Blood Sugar Level (control = 100), 3 Hrs ([3]; 25 mg/kg PO): 68% | Blood Sugar Level (control = 100), 5 Hrs ([3]; 25 mg/kg PO): 76% | Blood Sugar Level (control = 100), 1 Hr ([4]; 25 mg/kg PO): 77% | Blood Sugar Level (control = 100), 2 Hrs ([4]; 25 mg/kg PO): 68% | Blood Sugar Level (control = 100), 3 Hrs ([4]; 25 mg/kg PO): 78% | Blood Sugar Level (control = 100), 5 Hrs ([4]; 25 mg/kg PO): 86% | Blood Sugar Level (control = 100), 1 Hr ([5]; 1 h): 76% | Blood Sugar Level (control = 100), 2 Hrs ([5]; 2 h): 58% | Blood Sugar Level (control = 100), 3 Hrs ([5]; 3 h): 70% | Blood Sugar Level (control = 100), 5 Hrs ([5]; 5 h): 71% | Blood Sugar Level (control = 100), 1 Hr ([6]; 25 mg/kg PO): 77% | Blood Sugar Level (control = 100), 2 Hrs ([6]; 25 mg/kg PO): 75% | Blood Sugar Level (control = 100), 3 Hrs ([6]; 25 mg/kg PO): 72% | Blood Sugar Level (control = 100), 5 Hrs ([6]; 25 mg/kg PO): 78% | Glucose Tolerance Improving Activity ([7]; 25 mg/kg PO): 62.7% | IC50 [8]: 300 µM | LD50 [9]: 867 mg/kg

CCCCNC(=O)NS(=O)(=O)c1ccc(C)cc1 [Tolbutamide, reference compound]
Glucose Tolerance Improving Activity ([2]; 20 mg/kg PO): 64.5% | Blood Glucose Level, 0 min ([2]; 20 mg/kg): 79 ± 2 mg/dL | Blood Glucose Level, 15 min ([2]; 20 mg/kg): 121 ± 5 mg/dL | Blood Glucose Level, 30 min ([2]; 20 mg/kg): 114 ± 5 mg/dL | Blood Glucose Level, 60 min ([2]; 20 mg/kg): 98 ± 5 mg/dL | Blood Glucose Level, 90 min ([2]; 20 mg/kg): 90 ± 4 mg/dL | Blood Glucose Level, before glucose load (-60 min.) ([2]; 20 mg/kg): 80 ± 2 mg/dL | Blood Sugar Level (control = 100), 1 Hr ([3]; 10 mg/kg PO): 96% | Blood Sugar Level (control = 100), 2 Hrs ([3]; 10 mg/kg PO): 89% | Blood Sugar Level (control = 100), 3 Hrs ([3]; 10 mg/kg PO): 92% | Blood Sugar Level (control = 100), 5 Hrs ([3]; 10 mg/kg PO): 91% | Blood Sugar Level (control = 100), 1 Hr ([3]; 25 mg/kg PO): 90% | Blood Sugar Level (control = 100), 2 Hrs ([3]; 25 mg/kg PO): 80% | Blood Sugar Level (control = 100), 3 Hrs ([3]; 25 mg/kg PO): 76% | Blood Sugar Level (control = 100), 5 Hrs ([3]; 25 mg/kg PO): 82% | Blood Sugar Level (control = 100), 1 Hr ([4]; 50 mg/kg PO): 95% | Blood Sugar Level (control = 100), 2 Hrs ([4]; 50 mg/kg PO): 92% | Blood Sugar Level (control = 100), 3 Hrs ([4]; 50 mg/kg PO): 74% | Blood Sugar Level (control = 100), 5 Hrs ([4]; 50 mg/kg PO): 96% | Blood Sugar Level (control = 100), 1 Hr ([6]; 50 mg/kg PO): 94% | Blood Sugar Level (control = 100), 2 Hrs ([6]; 50 mg/kg PO): 86% | Blood Sugar Level (control = 100), 3 Hrs ([6]; 50 mg/kg PO): 86% | Blood Sugar Level (control = 100), 5 Hrs ([6]; 50 mg/kg PO): 92% | effectiveness on AYKK-mice (blood sugar lowering) ([6]; oral, AYKK-mice, in words): uneffective | Glucose Tolerance Improving Activity [10]: 67.4% | Glucose Tolerance Improving Activity ([7]; 50 mg/kg PO): 69.6% | Blood Sugar Level ([11]; after 90 minutes, control = 100): 56% | Amount of Insulin Released ([11]; sum of differences at 5, 10, 20, 30, 40 min): 189±26 μunit/ml | Blood Sugar Level ([12]; fed mice, 50 mg/kg po, after 2 hours, control = 100): 95.7% | Amount of Insulin Released ([12]; fed mice, 50 mg/kg po, sum of differences at 0.5, 1.0, 2.0 hours): -2.2±3.3 μunit/ml | insulin releasing action in mice ([12]; mice, in words): little action on insulin release

Reference: patent publication US4138491A, “Method for treating diabetes” (Daiichi Seiyaku Co., Ltd., priority 1976, dated 1979)
